# Where two headings read alike, the source gives them in different places.
# Key:
# [1] = system: rHMPV-GFP (recombinant HMPV CAN97-83, MPV-GFP1); test: HMPV antiviral assay (eGFP fluorescence in Vero E6 cells); format: cell-based; conditions: human metapneumovirus, Vero C1008, 120 h, read-out: rHMPV-GFP EC50
# Experimental: Method for HMPV Antiviral Assay
# HMPV antiviral activity was evaluated using a recombinant version of HMPV CAN97-83 engineered to contain the coding sequence for enhanced green fluorescence protein (eGFP) in the 3′ end of the virus genome (MPV-GFP1, ViraTree). Vero E6 cells (ATCC #CCL-7) were seeded at a density of 12,000 cells/100 μL/well into 96-well cell plates (VENDOR) one day prior to the assay. On the day of screening, the cell culture medium was aspirated from the wells and cells were washed twice with serum-free Eagle's Modified Essential Medium (EMEM, ATCC #) containing 1% penicillin-streptomycin (Invitrogen) (SF-EMEM). Cell washes were performed by dispensing 100 μL SF-EMEM per well and immediately aspirating the wash medium from the well. Following the second wash step, serum-free OptiMEM (Invitrogen, Cat No.) (SF-OptiMEM) containing 0.5 μg/mL TPCK-Trypsin (VENDOR) and 1% penicillin-streptomycin was added to the cells at 50 μL/well. Compounds were added into the 96-well plates using a JANUS automated liquid handling system (VENDOR). Compounds were initially diluted 1:50 into an intermediate 96-well plate containing SF-OptiMEM prior to transfer to the assay plate (25 μL/well). Each of the test compounds were tested in duplicate wells at final concentrations starting from 8 μM or 2 μM using ½ stepwise dilutions for a total of 8 points. Virus infection was performed by preparing a working stock of MPV-GFP1 at a multiplicity of infection (MOI) equal to 0.05/25 μL and aliquoting 25 μL of virus inoculum to the compound and positive control wells. SF-OptiMEM was added (25 μL/well) to the appropriate wells to serve as a virus-free negative control for the assay. The final DMSO concentration of all wells is 0.5%. Plates were incubated at 32° C., 5% CO2 for 5 days. After 5 days incubation, eGFP fluorescence intensity was measured at […] using a Spectramax i3X plate reader (VENDOR).
# Percent viral inhibition was calculated using the following equation: y=[[…](XQ/XP)]×100 Where XQ is the fluorescence intensity measured in a well containing recombinant MPV-GFP1-infected, compound-treated cells and XP is the average fluorescence intensity measured in the wells containing untreated cells infected with recombinant virus. EC50 values were then calculated by non-linear regression using a four-parameter curve logistic equation. The curve fit model employed was XLFit Dose Response One Site Model 200: y=(A+(B/(1+((x/C)^D)))) Where A is the minimum y value, B is the maximum y value, C is the log EC50 value, and D is the slope factor. The EC50 for each compound is listed in Table 2 and EC50 ranges are as follows: A<0.2 μM; B≥0.2 μM.
# [2] = system: Human RSV-A (“Long” strain); test: RSV-A assay (CPE, ATPlite readout in Hep-2 cells); format: cell-based; conditions: human respiratory syncytial virus, read-out: Human RSV-A (“Long” strain) EC50
# Text: Hep-2 cells, (originally derived from tumors grown in irradiated-cortisonised weanling rats that had been injected with epidermoid carcinoma tissue from a person's larynx, but later found to be indistinguishable from HeLa cells by PCR DNA analysis), were used for the culturing of genotype A, “Long” strain RSV. Flasks were inoculated with RSV and viral stocks were collected once cytopathic effect (CPE) was greater than 90%. Viral stocks in 25% sucrose media were snap frozen using liquid nitrogen to increase viral stability. Viral stock titers were quantified by tissue culture infectious dose 50% (TCID50) using 8,000 cells per well and 3-fold viral dilutions across a 96-well plate, cultured for 4 days. Viral stock titers were also quantified by a plaque forming unit assay, as described elsewhere.
# Following extensive parameter testing, the final assay is run as follows: Hep-2 cells are seeded into the inner 60 wells of a 96-well plate at 8,000 cells per well in a volume of 50 μL using Growth Media (DMEM without phenol red, 1% L-Glut, 1% Penn/Strep, 1% nonessential amino acids, 10% heat-inactivated FBS). 2-fold serial dilutions of control and test compounds are added to the wells in duplicate in a total volume of 25 μL. Viral stock is then added to the wells at a multiplicity of infection (MOI) of 0.1 in a volume of 25 μL, bringing the total volume of each well to 100 μL. The MOI is calculated using the PFU/mL, or TCID50 if unavailable. Each 96-well plate has a control column of 6 wells with cells and virus but no compound (negative control, max CPE), a column with cells but no compound or virus (positive control, minimum CPE), and a column with no cells or virus or compound (background plate/reagent control). The control wells with cells but no virus are given an additional 25 μL of growth media containing an equal quantity of sucrose as those wells receiving the viral stock in order to keep consistent in media and volume conditions. The outer wells of the plate are filled with 125 μL of moat media (DMEM, 1% Penn/Strep) to act as a thermal and evaporative moat around the test wells. Following a 5-day incubation period, the plates are read using ATPlite (50 uL added per well), which quantifies the amount of ATP (a measure of cell health) present in each well. Assay plates are read using the Envision luminometer. […] EC50 ranges are as follows: A<0.2 μM; B≥0.2 μM.
# [3] = 120 h, Hep-2 cells, MOI 0.1, 5-day incubation, ATPlite
SMILES,EC50 [1],"EC50 [2, 3]","EC50 ([2]; HEp-2, 120 h)"
"COc1cc(C(=O)NC[C@](O)(c2cc3c(c(-c4ccc(F)cc4)n2)OC[C@@]3(n2ccnn2)C(F)(F)F)C(F)(F)F)ccc1OC1CC1 [Example 1, 4-cyclopropoxy-3-methoxy-N-((S)-3,3,3-trifluoro-2-((R)-7-(4-fluorophenyl)-3-(1H-1,2,3-triazol-1-yl)-3-(trifluoromethyl)-2,3-dihydrofuro[2,3-c]pyridin-5-yl)-2-hydroxypropyl)benzamide]",> 200 nM,> 200 nM,
"COc1cc(C(=O)NC[C@](C)(O)c2cc3c(c(-c4ccc(F)cc4)n2)OC[C@@]3(n2cnnc2)C(F)(F)F)ccc1OC1CC1 [Example 2, 4-cyclopropoxy-N-((S)-2-((R)-7-(4-fluorophenyl)-3-(4H-1,2,4-triazol-4-yl)-3-(trifluoromethyl)-2,3-dihydrofuro[2,3-c]pyridin-5-yl)-2-hydroxypropyl)-3-methoxybenzamide]",> 200 nM,< 200 nM,
"COc1cc(C(=O)NC[C@](O)(c2cc3c(c(-c4ccc(F)cc4)n2)OC[C@@]3(n2cnnc2)C(F)(F)F)C2CC2)ccc1OC1CC1 [Example 3, 4-cyclopropoxy-N-((S)-2-cyclopropyl-2-((R)-7-(4-fluorophenyl)-3-(4H-1,2,4-triazol-4-yl)-3-(trifluoromethyl)-2,3-dihydrofuro[2,3-c]pyridin-5-yl)-2-hydroxyethyl)-3-methoxybenzamide]",> 200 nM,,< 200 nM
"COc1cc(C(=O)NC[C@](O)(c2cc3c(c(-c4ccc(F)cc4)n2)OC[C@@]3(n2ccnc2)C(F)(F)F)C2CC2)ccc1OC1CC1 [Example 4, 4-cyclopropoxy-N-((S)-2-cyclopropyl-2-((R)-7-(4-fluorophenyl)-3-(1H-imidazol-1-yl)-3-(trifluoromethyl)-2,3-dihydrofuro[2,3-c]pyridin-5-yl)-2-hydroxyethyl)-3-methoxybenzamide]",,,< 200 nM
"COc1cc(C(=O)NC[C@](O)(c2cc3c(c(-c4ccc(F)cc4)n2)OC[C@]3(C)n2cnnc2)C(F)(F)F)ccc1OC1CC1 [Example 6, 4-cyclopropoxy-3-methoxy-N-((S)-3,3,3-trifluoro-2-((R)-7-(4-fluorophenyl)-3-methyl-3-(4H-1,2,4-triazol-4-yl)-2,3-dihydrofuro[2,3-c]pyridin-5-yl)-2-hydroxypropyl)benzamide]",> 200 nM,< 200 nM,
"COc1cc(C(=O)NC[C@](O)(c2cc3c(c(-c4ccc(F)cc4)n2)OC[C@]3(C)n2cnnc2)C(F)(F)F)cc2cccnc12 [Example 7, 8-methoxy-N-((S)-3,3,3-trifluoro-2-((R)-7-(4-fluorophenyl)-3-methyl-3-(4H-1,2,4-triazol-4-yl)-2,3-dihydrofuro[2,3-c]pyridin-5-yl)-2-hydroxypropyl)quinoline-6-carboxamide]",,> 200 nM,
"COc1cc(C(=O)NC[C@](O)(c2cc3c(c(-c4ccc(F)cc4)n2)OC[C@]3(C)n2ccnc2)C(F)(F)F)cc2cccnc12 [Example 8, 8-methoxy-N-((S)-3,3,3-trifluoro-2-((R)-7-(4-fluorophenyl)-3-(1H-imidazol-1-yl)-3-methyl-2,3-dihydrofuro[2,3-c]pyridin-5-yl)-2-hydroxypropyl)quinoline-6-carboxamide]",,< 200 nM,
"COc1cc(C(=O)NC[C@](O)(c2cc3c(c(-c4ccc(F)cc4)n2)OC[C@]3(C)n2ccnc2)C(F)(F)F)ccc1OC1CC1 [Example 9, 4-cyclopropoxy-3-methoxy-N-((S)-3,3,3-trifluoro-2-((R)-7-(4-fluorophenyl)-3-(1H-imidazol-1-yl)-3-methyl-2,3-dihydrofuro[2,3-c]pyridin-5-yl)-2-hydroxypropyl)benzamide]",> 200 nM,< 200 nM,
"COc1cc(C(=O)NC[C@](O)(c2cc3c(c(-c4ccc(F)cc4)n2)OC[C@]3(C)n2cccc2)C(F)(F)F)cc2cccnc12 [Example 10, 8-methoxy-N-((S)-3,3,3-trifluoro-2-((R)-7-(4-fluorophenyl)-3-methyl-3-(1H-pyrrol-1-yl)-2,3-dihydrofuro[2,3-c]pyridin-5-yl)-2-hydroxypropyl)quinoline-6-carboxamide]",,> 200 nM,
"COc1cc(C(=O)NC[C@](O)(c2cc3c(c(-c4ccc(F)cc4)n2)OC[C@]3(C)n2ccnn2)C(F)(F)F)ccc1OC1CC1 [Example 11, 4-cyclopropoxy-3-methoxy-N-((S)-3,3,3-trifluoro-2-((R)-7-(4-fluorophenyl)-3-methyl-3-(1H-1,2,3-triazol-1-yl)-2,3-dihydrofuro[2,3-c]pyridin-5-yl)-2-hydroxypropyl)benzamide]",> 200 nM,< 200 nM,
"COc1cc(C(=O)NC[C@](O)(c2cc3c(c(-c4ccc(F)cc4)n2)OC[C@]3(C)n2cc(C3CC3)nn2)C(F)(F)F)ccc1OC1CC1 [Example 12, 4-cyclopropoxy-N-((S)-2-((R)-3-(4-cyclopropyl-1H-1,2,3-triazol-1-yl)-7-(4-fluorophenyl)-3-methyl-2,3-dihydrofuro[2,3-c]pyridin-5-yl)-3,3,3-trifluoro-2-hydroxypropyl)-3-methoxybenzamide]",,< 200 nM,
"COc1cc(C(=O)NC[C@](C)(O)c2cc3c(c(-c4ccc(F)cc4)n2)OC[C@]3(C)n2cnnc2)ccc1OC1CC1 [Example 13, 4-cyclopropoxy-N-((S)-2-((R)-7-(4-fluorophenyl)-3-methyl-3-(4H-1,2,4-triazol-4-yl)-2,3-dihydrofuro[2,3-c]pyridin-5-yl)-2-hydroxypropyl)-3-methoxybenzamide]",> 200 nM,< 200 nM,
"COc1cc(C(=O)NC[C@](C)(O)c2cc3c(c(-c4ccc(F)cc4)n2)OC[C@]3(C)n2cnnc2)cc2cccnc12 [Example 14, N-((S)-2-((R)-7-(4-fluorophenyl)-3-methyl-3-(4H-1,2,4-triazol-4-yl)-2,3-dihydrofuro[2,3-c]pyridin-5-yl)-2-hydroxypropyl)-8-methoxyquinoline-6-carboxamide]",,> 200 nM,
"COc1cc(C(=O)NC[C@](O)(c2cc3c(c(-c4ccc(F)cc4)n2)OC[C@]3(C)n2cnnc2)C2CC2)ccc1OC1CC1 [Example 15, 4-cyclopropoxy-N-((S)-2-cyclopropyl-2-((R)-7-(4-fluorophenyl)-3-methyl-3-(4H-1,2,4-triazol-4-yl)-2,3-dihydrofuro[2,3-c]pyridin-5-yl)-2-hydroxyethyl)-3-methoxybenzamide]",> 200 nM,< 200 nM,
"COc1cc(C(=O)NC[C@](O)(c2cc3c(c(-c4ccc(F)cc4)n2)OC[C@]3(C)c2nnn[nH]2)C(F)(F)F)cc2cccnc12 [Example 19, 8-methoxy-N-((S)-3,3,3-trifluoro-2-((S)-7-(4-fluorophenyl)-3-methyl-3-(1H-tetrazol-5-yl)-2,3-dihydrofuro[2,3-c]pyridin-5-yl)-2-hydroxypropyl)quinoline-6-carboxamide]",,> 200 nM,
